The source of these data is US12685735B2 (Foghorn Therapeutics Inc., priority 2020, dated 2026).

The target of one test is BRM (Homo sapiens, UniProt P51531). As to the kind of experiment: ATPase catalytic activity assay of BRM (ADP-Glo). The class given is biochemical. The method, boiled down:
(§1)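 Measurement is luminescence, reflecting ADP produced by ATPase turnover. The two-step ADP-Glo detection consists of ATP depletion for 40 min and ADP-to-ATP conversion with luciferase for 60 min, both at room temperature.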
On the technique in general: ADP-Glo turns the ADP formed in a reaction into a luminescent signal.

In a further test the target is BRG-1 (Homo sapiens, UniProt P51532). Briefly: ATPase catalytic activity assay of BRG-1 (ADP-Glo). Particulars: ATPase catalytic activity, ADP-Glo; for Emax: read-out: BRG1 Max % Inhibition. In kind it is biochemical. The method, boiled down:
as §1

Where two headings read alike, the source gives them in different places.

Sequence of BRG-1 (P51532 whole entry): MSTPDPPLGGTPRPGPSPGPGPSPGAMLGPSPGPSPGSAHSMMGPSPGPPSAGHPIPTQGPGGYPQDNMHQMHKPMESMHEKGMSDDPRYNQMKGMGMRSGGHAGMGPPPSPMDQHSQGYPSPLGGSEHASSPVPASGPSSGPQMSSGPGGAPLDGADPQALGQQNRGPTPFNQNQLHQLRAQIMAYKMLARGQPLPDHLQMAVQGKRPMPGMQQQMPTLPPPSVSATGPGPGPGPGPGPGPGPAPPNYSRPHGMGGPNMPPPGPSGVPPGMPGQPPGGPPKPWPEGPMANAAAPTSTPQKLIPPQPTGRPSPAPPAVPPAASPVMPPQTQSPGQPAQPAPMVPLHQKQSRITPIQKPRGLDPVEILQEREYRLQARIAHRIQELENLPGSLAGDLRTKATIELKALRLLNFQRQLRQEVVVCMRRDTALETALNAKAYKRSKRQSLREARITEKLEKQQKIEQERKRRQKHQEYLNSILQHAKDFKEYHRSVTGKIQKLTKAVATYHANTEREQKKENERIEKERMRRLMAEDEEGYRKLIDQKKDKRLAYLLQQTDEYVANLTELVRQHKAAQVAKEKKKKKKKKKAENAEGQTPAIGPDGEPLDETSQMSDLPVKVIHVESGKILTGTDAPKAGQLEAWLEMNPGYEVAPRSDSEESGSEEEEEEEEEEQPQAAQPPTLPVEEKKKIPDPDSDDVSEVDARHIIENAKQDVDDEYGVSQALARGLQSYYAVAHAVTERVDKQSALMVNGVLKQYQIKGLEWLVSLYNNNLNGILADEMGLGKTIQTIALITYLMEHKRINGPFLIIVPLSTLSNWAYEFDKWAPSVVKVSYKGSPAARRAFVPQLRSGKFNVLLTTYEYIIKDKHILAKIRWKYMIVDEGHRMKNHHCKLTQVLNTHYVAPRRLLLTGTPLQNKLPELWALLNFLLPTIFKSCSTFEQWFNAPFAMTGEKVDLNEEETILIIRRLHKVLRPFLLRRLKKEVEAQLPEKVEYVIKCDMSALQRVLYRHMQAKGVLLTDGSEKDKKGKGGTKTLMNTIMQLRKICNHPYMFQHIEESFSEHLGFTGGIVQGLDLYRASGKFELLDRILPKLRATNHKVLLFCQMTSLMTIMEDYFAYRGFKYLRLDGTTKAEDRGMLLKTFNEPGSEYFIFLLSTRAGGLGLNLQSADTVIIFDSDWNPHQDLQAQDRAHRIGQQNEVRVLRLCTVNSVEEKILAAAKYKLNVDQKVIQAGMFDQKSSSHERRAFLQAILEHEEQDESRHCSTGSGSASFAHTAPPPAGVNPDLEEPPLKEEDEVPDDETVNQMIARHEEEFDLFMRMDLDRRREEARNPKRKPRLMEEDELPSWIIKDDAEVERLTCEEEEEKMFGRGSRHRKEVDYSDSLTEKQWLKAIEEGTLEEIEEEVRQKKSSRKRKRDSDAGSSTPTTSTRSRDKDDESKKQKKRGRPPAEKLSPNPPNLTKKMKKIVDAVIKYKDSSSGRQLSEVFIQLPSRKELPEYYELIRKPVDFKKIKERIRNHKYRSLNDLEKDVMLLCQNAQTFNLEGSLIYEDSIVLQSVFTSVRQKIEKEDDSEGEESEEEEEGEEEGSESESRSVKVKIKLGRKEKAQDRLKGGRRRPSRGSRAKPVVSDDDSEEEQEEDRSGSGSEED
Sequence of BRM (P51531 whole entry): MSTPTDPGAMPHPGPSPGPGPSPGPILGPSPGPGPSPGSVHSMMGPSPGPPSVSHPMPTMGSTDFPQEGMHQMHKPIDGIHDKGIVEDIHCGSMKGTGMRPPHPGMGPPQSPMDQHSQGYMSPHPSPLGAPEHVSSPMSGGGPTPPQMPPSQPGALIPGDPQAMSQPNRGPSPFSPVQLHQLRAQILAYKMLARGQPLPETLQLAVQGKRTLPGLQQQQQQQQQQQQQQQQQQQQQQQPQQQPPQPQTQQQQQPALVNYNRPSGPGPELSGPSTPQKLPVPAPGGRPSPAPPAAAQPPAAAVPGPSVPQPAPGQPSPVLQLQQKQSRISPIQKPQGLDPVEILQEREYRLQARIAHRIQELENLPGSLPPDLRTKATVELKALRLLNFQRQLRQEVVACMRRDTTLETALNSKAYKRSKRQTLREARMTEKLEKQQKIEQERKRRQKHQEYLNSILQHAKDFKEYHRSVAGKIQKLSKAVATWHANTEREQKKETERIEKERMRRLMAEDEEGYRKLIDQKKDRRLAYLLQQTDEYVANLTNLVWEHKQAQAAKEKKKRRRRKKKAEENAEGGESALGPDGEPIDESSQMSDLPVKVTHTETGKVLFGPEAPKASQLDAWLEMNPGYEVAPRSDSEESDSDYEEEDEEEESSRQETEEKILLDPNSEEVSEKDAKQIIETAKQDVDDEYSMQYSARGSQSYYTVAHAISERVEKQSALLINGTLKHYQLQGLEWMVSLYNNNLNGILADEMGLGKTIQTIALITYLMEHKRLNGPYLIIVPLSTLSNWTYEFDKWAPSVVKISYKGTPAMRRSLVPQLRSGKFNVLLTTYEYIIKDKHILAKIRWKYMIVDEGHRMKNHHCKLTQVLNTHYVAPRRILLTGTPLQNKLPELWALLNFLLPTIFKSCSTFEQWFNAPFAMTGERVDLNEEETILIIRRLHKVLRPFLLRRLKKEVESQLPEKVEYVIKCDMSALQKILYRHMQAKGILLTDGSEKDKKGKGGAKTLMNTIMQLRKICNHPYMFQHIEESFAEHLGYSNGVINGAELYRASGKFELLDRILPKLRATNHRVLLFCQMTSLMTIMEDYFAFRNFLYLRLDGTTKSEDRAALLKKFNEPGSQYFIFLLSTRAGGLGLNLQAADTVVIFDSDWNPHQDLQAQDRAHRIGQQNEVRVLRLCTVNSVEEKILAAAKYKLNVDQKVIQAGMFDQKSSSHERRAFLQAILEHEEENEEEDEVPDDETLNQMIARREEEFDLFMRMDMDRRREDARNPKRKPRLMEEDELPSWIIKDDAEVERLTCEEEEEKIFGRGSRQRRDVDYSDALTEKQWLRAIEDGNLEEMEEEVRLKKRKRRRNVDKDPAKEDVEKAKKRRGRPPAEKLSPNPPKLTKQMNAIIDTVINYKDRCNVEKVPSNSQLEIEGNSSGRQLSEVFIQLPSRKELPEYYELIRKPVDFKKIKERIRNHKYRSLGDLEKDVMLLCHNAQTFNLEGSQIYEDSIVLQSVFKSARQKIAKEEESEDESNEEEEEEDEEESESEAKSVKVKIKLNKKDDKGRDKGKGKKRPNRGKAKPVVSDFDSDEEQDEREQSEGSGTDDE

As for `CC(C)S(=O)(=O)c1cccc(C(=O)NCC(=O)Nc2nc(-c3cccc(-c4ccnc(CO)c4)c3)cs2)c1` [Compound 26, N-(2-((4-(3-(2-(hydroxymethyl)pyridin-4-yl)phenyl)thiazol-2-yl)amino)-2-oxoethyl)-3-(isopropylsulfonyl)benzamide], the “BRM Max % Inhibition” value on BRM is over 90%. The IC50 at BRM (read-out: BRM IC50 (μM)*) is under 0.1 µM; on BRG-1 (read-out: BRG1 IC50 (μM)*), 0.1 to 1 µM.

As to `CC(C)S(=O)(=O)c1cccc(C(=O)NCC(=O)Nc2nc(-c3cccc(-c4cc(CO)cc(C(F)(F)F)c4)c3)cs2)c1` [Compound 27, N-(2-((4-(3′-(hydroxymethyl)-5′-(trifluoromethyl)-[1,1′-biphenyl]-3-yl)thiazol-2-yl)amino)-2-oxoethyl)-3-(isopropylsulfonyl)benzamide], the “BRM Max % Inhibition” value on BRM was over 95%. In addition, the IC50 on BRM (read-out: BRM IC50 (μM)*) is under 0.1 µM; on BRG-1 (read-out: BRG1 IC50 (μM)*) it was 0.1 to 1 µM.

`CC(C)S(=O)(=O)c1cccc(C(=O)NCC(=O)Nc2nc(-c3cccc(-c4cccc(Cl)c4)c3)cs2)c1` [Compound 28, N-(2-((4-(3′-chloro-[1,1′-biphenyl]-3-yl)thiazol-2-yl)amino)-2-oxoethyl)-3-(isopropylsulfonyl)benzamide]: the “BRM Max % Inhibition” value at BRM is over 80%. The IC50 was in the range of 0.1 to 1 µM on BRM (BRM IC50 (μM)*) and 1 to 5 µM against BRG-1 (BRG1 IC50 (μM)*).

Take `COc1cc(-c2cccc(-c3csc(NC(=O)CNC(=O)c4cccc(S(=O)(=O)C(C)C)c4)n3)c2)ccn1` [Compound 29, 3-(isopropylsulfonyl)-N-(2-((4-(3-(2-methoxypyridin-4-yl)phenyl)thiazol-2-yl)amino)-2-oxoethyl)benzamide]: at BRM, the “BRM Max % Inhibition” value is recorded as over 90%. For the same molecule, the IC50 at BRM (read-out: BRM IC50 (μM)*) and on BRG-1 (read-out: BRG1 IC50 (μM)*) was 0.1 to 1 µM each time.

Consider `CC(C)S(=O)(=O)c1cccc(C(=O)NCC(=O)Nc2nc(-c3cccc(-c4cc(Cl)cc(Cl)c4)c3)cs2)c1` [Compound 30, N-(2-((4-(3′,5′-dichloro-[1,1′-biphenyl]-3-yl)thiazol-2-yl)amino)-2-oxoethyl)-3-(isopropylsulfonyl)benzamide], for which the “BRM Max % Inhibition” value on BRM is given as over 90%. Moreover, the IC50 at BRM (read-out: BRM IC50 (μM)*) was 0.1 to 1 µM; on BRG-1 (read-out: BRG1 IC50 (μM)*), 1 to 5 µM.

As for `CC(C)S(=O)(=O)c1cccc(C(=O)NCC(=O)Nc2nc(-c3cccc(-c4cccc(CN)c4)c3)cs2)c1` [Compound 31, N-(2-((4-(3′-(aminomethyl)-[1,1′-biphenyl]-3-yl)thiazol-2-yl)amino)-2-oxoethyl)-3-(isopropylsulfonyl)benzamide], the “BRM Max % Inhibition” value at BRM was over 90%. The IC50 on BRM (read-out: BRM IC50 (μM)*) lay in the range of 0.1 to 1 µM; on BRG-1 (read-out: BRG1 IC50 (μM)*), 1 to 5 µM. The Emax on BRG-1 is over 70%.

For `COC[C@H](NC(=O)c1cccc(S(=O)(=O)C(C)C)c1)C(=O)Nc1nc(-c2cccc(-c3ccnc(C)c3)c2)cs1` [Compound 32, (S)-3-(isopropylsulfonyl)-N-(3-methoxy-1-((4-(3-(2-methylpyridin-4-yl)phenyl)thiazol-2-yl)amino)-1-oxopropan-2-yl)benzamide], the “BRM Max % Inhibition” value at BRM is reported as over 95%. Besides, the IC50 at BRM (read-out: BRM IC50 (μM)*) and on BRG-1 (read-out: BRG1 IC50 (μM)*) was 0.1 to 1 µM in each case. In addition, the Emax at BRG-1 is over 80%.

In the case of `CC(C)S(=O)(=O)c1cccc(C(=O)NCC(=O)Nc2nc(-c3cc(C#N)cc(-c4ccc(CN)cc4)c3)cs2)c1` [Compound 33, N-[2-[[4-[3-[4-(aminomethyl)phenyl]-5-cyano-phenyl]thiazol-2-yl]amino]-2-oxo-ethyl]-3-isopropylsulfonyl-benzamide], the “BRM Max % Inhibition” value on BRM is given as over 70%. Further, the IC50 at BRM (read-out: BRM IC50 (μM)*) and on BRG-1 (read-out: BRG1 IC50 (μM)*) was over 5 µM in each case. Also, the Emax on BRG-1 was over 80%.

In the case of `CC(C)S(=O)(=O)c1cccc(C(=O)NCC(=O)Nc2nc(-c3cccc(-c4cccnc4)c3)cs2)c1` [Compound 39, 3-isopropylsulfonyl-N-[2-oxo-2-[[4-[3-(3-pyridyl)phenyl]thiazol-2-yl]amino]ethyl]benzamide], the “BRM Max % Inhibition” value on BRM is on record as over 95%. Moreover, the results for the IC50 at BRM (read-out: BRM IC50 (μM)*) and on BRG-1 (read-out: BRG1 IC50 (μM)*) were 0.1 to 1 µM and 1 to 5 µM, respectively. On BRG-1, the Emax is over 90%.

Consider `CC(C)S(=O)(=O)c1cccc(C(=O)NCC(=O)Nc2nc(-c3cccc(-c4ccnc(CN(C)C)c4)c3)cs2)c1` [Compound 45, N-(2-((4-(3-(2-((dimethylamino)methyl)pyridin-4-yl)phenyl)thiazol-2-yl)amino)-2-oxoethyl)-3-(isopropylsulfonyl)benzamide], for which, on BRM, the “BRM Max % Inhibition” value was over 95%. Further, the IC50 at BRM (read-out: BRM IC50 (μM)*) is under 0.1 µM; at BRG-1 (read-out: BRG1 IC50 (μM)*), 1 to 5 µM.

With `Cc1ccc(C(=O)NCC(=O)Nc2nc(-c3cccc(-c4ccn(C)n4)c3)cs2)cc1S(=O)(=O)C(C)C` [Compound 46, 3-(isopropylsulfonyl)-4-methyl-N-(2-((4-(3-(1-methyl-1H-pyrazol-3-yl)phenyl)thiazol-2-yl)amino)-2-oxoethyl)benzamide], on BRM, the “BRM Max % Inhibition” value is given as over 95%. In addition, the IC50 at BRM (read-out: BRM IC50 (μM)*) is 0.1 to 1 µM; at BRG-1 (read-out: BRG1 IC50 (μM)*), 1 to 5 µM. Moreover, the Emax at BRG-1 is over 60%.

For `CSCC[C@H](NC(=O)c1cccc(C(C)(C)CN)c1)C(=O)Nc1nc(-c2cccc(-c3ccncc3)c2)cs1` [Compound 48, (S)-3-(1-amino-2-methylpropan-2-yl)-N-(4-(methylthio)-1-oxo-1-((4-(3-(pyridin-4-yl)phenyl)thiazol-2-yl)amino)butan-2-yl)benzamide], the “BRM Max % Inhibition” value at BRM is over 95%. Moreover, the IC50 on BRM (read-out: BRM IC50 (μM)*) and at BRG-1 (read-out: BRG1 IC50 (μM)*) was 0.1 to 1 µM each time. At BRG-1, the Emax is over 80%.

As to `COc1cc(-c2cccc(-c3csc(NC(=O)CNC(=O)c4cccc(C(C)(C)CN)c4)n3)c2)ccn1` [Compound 49, 3-(1-amino-2-methylpropan-2-yl)-N-(2-((4-(3-(2-methoxypyridin-4-yl)phenyl)thiazol-2-yl)amino)-2-oxoethyl)benzamide], at BRM, the “BRM Max % Inhibition” value is over 80%. Besides, the IC50 on BRM (read-out: BRM IC50 (μM)*) is 0.1 to 1 µM; at BRG-1 (read-out: BRG1 IC50 (μM)*), over 5 µM. Also, the Emax on BRG-1 was over 60%.

`CC(C)(CN)c1cccc(C(=O)NCC(=O)Nc2nc(-c3cccc(-c4cc(C#N)cc(C#N)c4)c3)cs2)c1` [Compound 50, 3-(1-amino-2-methylpropan-2-yl)-N-(2-((4-(3′,5′-dicyano-[1,1′-biphenyl]-3-yl)thiazol-2-yl)amino)-2-oxoethyl)benzamide]: the “BRM Max % Inhibition” value on BRM is listed as over 90%. For the same molecule, the figures for the IC50 at BRM (read-out: BRM IC50 (μM)*) and at BRG-1 (read-out: BRG1 IC50 (μM)*) were 0.1 to 1 µM and 1 to 5 µM, respectively. In addition, the Emax on BRG-1 was over 70%.

Regarding `CC(C)(CN)c1cccc(C(=O)NCC(=O)Nc2nc(-c3cccc(-c4cc(Cl)cc(Cl)c4)c3)cs2)c1` [Compound 51, 3-(1-amino-2-methylpropan-2-yl)-N-(2-((4-(3′,5′-dichloro-[1,1′-biphenyl]-3-yl)thiazol-2-yl)amino)-2-oxoethyl)benzamide], at BRM, the “BRM Max % Inhibition” value is on record as over 80%. The values for the IC50 on BRM (read-out: BRM IC50 (μM)*) and at BRG-1 (read-out: BRG1 IC50 (μM)*) were 0.1 to 1 µM and over 5 µM, respectively. At BRG-1, the Emax was over 50%.

As for `CC(C)(CN)c1cccc(C(=O)NCC(=O)Nc2nc(-c3cccc(-c4cc(C#N)cc(CO)c4)c3)cs2)c1` [Compound 52, 3-(1-amino-2-methylpropan-2-yl)-N-(2-((4-(3′-cyano-5′-(hydroxymethyl)-[1,1′-biphenyl]-3-yl)thiazol-2-yl)amino)-2-oxoethyl)benzamide], the “BRM Max % Inhibition” value at BRM was over 80%. For the same molecule, the IC50 was in the range of 0.1 to 1 µM at BRM (read-out: BRM IC50 (μM)*) and 1 to 5 µM at BRG-1 (read-out: BRG1 IC50 (μM)*). Also, at BRG-1, the Emax is over 70%.

With `CC(C)(CN)c1cccc(C(=O)NCC(=O)Nc2nc(-c3cccc(-c4cc(CO)cc(C(F)(F)F)c4)c3)cs2)c1` [Compound 53, 3-(1-amino-2-methylpropan-2-yl)-N-(2-((4-(3′-(hydroxymethyl)-5′-(trifluoromethyl)-[1,1′-biphenyl]-3-yl)thiazol-2-yl)amino)-2-oxoethyl)benzamide], the “BRM Max % Inhibition” value at BRM was over 90%. For the same molecule, the IC50 was in the range of 0.1 to 1 µM on BRM (read-out: BRM IC50 (μM)*) and 1 to 5 µM at BRG-1 (read-out: BRG1 IC50 (μM)*). In addition, the Emax on BRG-1 is over 70%.

As to `CC(C)(CN)c1cccc(C(=O)NCC(=O)Nc2nc(-c3cccc(-c4cccc(Cl)c4)c3)cs2)c1` [Compound 54, 3-(1-amino-2-methylpropan-2-yl)-N-(2-((4-(3′-chloro-[1,1′-biphenyl]-3-yl)thiazol-2-yl)amino)-2-oxoethyl)benzamide], on BRM, the “BRM Max % Inhibition” value is over 80%. Further, the IC50 on BRM (read-out: BRM IC50 (μM)*) and at BRG-1 (read-out: BRG1 IC50 (μM)*) was 1 to 5 µM in each case. For the same molecule, at BRG-1, the Emax was over 50%.

As for `CC(C)(CN)c1cccc(C(=O)NCC(=O)Nc2nc(-c3cccc(-c4cccc(C#N)c4)c3)cs2)c1` [Compound 55, 3-(1-amino-2-methylpropan-2-yl)-N-(2-((4-(3′-cyano-[1,1′-biphenyl]-3-yl)thiazol-2-yl)amino)-2-oxoethyl)benzamide], the “BRM Max % Inhibition” value on BRM is listed as over 90%. Also, the IC50 was 0.1 to 1 µM at BRM (read-out: BRM IC50 (μM)*) and over 5 µM on BRG-1 (read-out: BRG1 IC50 (μM)*). Also, at BRG-1, the Emax was over 60%.

`CC(=O)N(C)c1cc(-c2cccc(-c3csc(NC(=O)CNC(=O)c4cccc(C(C)(C)CN)c4)n3)c2)ccn1` [Compound 56, 3-(1-amino-2-methylpropan-2-yl)-N-(2-((4-(3-(2-(N-methylacetamido)pyridin-4-yl)phenyl)thiazol-2-yl)amino)-2-oxoethyl)benzamide]: the “BRM Max % Inhibition” value at BRM is over 90%. For the same molecule, the IC50 on BRM (read-out: BRM IC50 (μM)*) fell in the range of 0.1 to 1 µM; on BRG-1 (read-out: BRG1 IC50 (μM)*) it was 1 to 5 µM. Further, the Emax at BRG-1 was over 70%.

In the case of `CNc1cc(-c2cccc(-c3csc(NC(=O)CNC(=O)c4cccc(C(C)(C)CN)c4)n3)c2)ccn1` [Compound 57, 3-(1-amino-2-methylpropan-2-yl)-N-(2-((4-(3-(2-(methylamino)pyridin-4-yl)phenyl)thiazol-2-yl)amino)-2-oxoethyl)benzamide], the “BRM Max % Inhibition” value at BRM is over 95%. Further, the concentration for half-maximal inhibition (IC50) at BRM (read-out: BRM IC50 (μM)*) is under 0.1 µM; on BRG-1 (read-out: BRG1 IC50 (μM)*), 0.1 to 1 µM. In addition, the Emax at BRG-1 was over 80%.

The IC50 is the concentration needed to halve the response being measured.
